Where a name gives a salt, the structure may show the parent alone.
What was measured:
[1] = Solubility of the polymorphic form; assay type: physicochemical
[2] = Thermal stability / transformation on heating in a DSC apparatus; assay type: physicochemical
Protocol: The crystalline polymorph CSC2 upon heating is transformed into form V at temperatures of about >120° C., whereupon a second transformation takes place into form III at temperatures of about >160° C. (experiment performed in a DSC apparatus with heating rate of 20° C./minute).

[3] = disclosed in U.S. Pat. No. 5,248,699; cited from earlier work
[4] = DSC apparatus, heating rate of 20° C./minute

Row | Compound | solubility [1] | thermal stability [2] | temperature of second transformation into form III upon heating [2, 4] [°C] | temperature of transformation into form V upon heating [2, 4] [°C] | stability compared with the other crystalline forms of sertraline hydrochloride [3]
1 | CN[C@H]1CC[C@@H](c2ccc(Cl)c(Cl)c2)c2ccccc21 [CSC2, (1S-cis)-4-(3,4-dichlorophenyl)-1,2,3,4-tetrahydro-N-methyl-1-naphthalenamine hydrochloride] | high | good | > 160 | > 120 | 
2 | CN[C@H]1CC[C@@H](c2ccc(Cl)c(Cl)c2)c2ccccc21 [form I, sertraline hydrochloride] |  |  |  |  | greatest stability
